# Laboratory results published in patent US20250368649A1, “TETRAHYDROPYRIDOPYRIMIDINE PAN-KRAS INHIBITORS” (Mirati Therapeutics, Inc., priority 2022, published 2025).
# Experiments:
# A549 cells = assay: Inhibition of KRas-mediated phosphorylation of ERK (Cisbio HTRF pERK), A549 cells; format: cell-based; settings: Homo sapiens; for inhibition at 0.1 µM: single point at 100 nM, 3 hrs compound incubation; for IC50: A549, 3 h, 3 hr compound incubation, Cisbio pERK HTRF
# KRas G12D = KRas G12D (Homo sapiens, UniProt P01116, G12D); assay: biochemical; settings: Binding to KRas (IC50 nM) G12D, TR-FRET displacement, KRas G12D
# KRas G12D, sequence (P01116 1-169 isoform P01116-2 G12D): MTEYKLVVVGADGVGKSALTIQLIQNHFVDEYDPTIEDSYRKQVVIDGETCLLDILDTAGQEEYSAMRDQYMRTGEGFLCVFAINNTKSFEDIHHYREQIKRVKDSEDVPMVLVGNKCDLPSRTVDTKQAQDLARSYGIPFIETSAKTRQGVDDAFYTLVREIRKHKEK
# H460 cells = assay: Inhibition of KRas-mediated phosphorylation of ERK (Cisbio HTRF pERK), H460 cells; format: cell-based; settings: Homo sapiens; for inhibition at 0.1 µM: NCI-H460, single point at 100 nM, 3 hrs compound incubation; for IC50: NCI-H460, 3 h, 3 hr compound incubation, Cisbio pERK HTRF
# ASPC1 cells = assay: Inhibition of KRas-mediated phosphorylation of ERK (Cisbio HTRF pERK), ASPC1 cells; format: cell-based; settings: Homo sapiens, AsPC-1 cells; for IC50: ASPC1, 3 h, 3 hr compound incubation, Cisbio pERK HTRF; for inhibition at 0.1 µM: ASPC1, single point at 100 nM, 3 hrs compound incubation
# H727 cells = assay: Inhibition of KRas-mediated phosphorylation of ERK (Cisbio HTRF pERK), H727 cells; format: cell-based; settings: Homo sapiens; for IC50: NCI-H727, 3 h, 3 hr compound incubation, Cisbio pERK HTRF; for inhibition at 0.1 µM: NCI-H727, single point at 100 nM, 3 hrs compound incubation
# KRas G12V = KRas G12V (Homo sapiens, UniProt P01116, G12V); assay: biochemical; settings: Binding to KRas (IC50 nM) G12V, TR-FRET displacement, KRas G12V
# KRas G12V, sequence (P01116 1-169 isoform P01116-2 G12V): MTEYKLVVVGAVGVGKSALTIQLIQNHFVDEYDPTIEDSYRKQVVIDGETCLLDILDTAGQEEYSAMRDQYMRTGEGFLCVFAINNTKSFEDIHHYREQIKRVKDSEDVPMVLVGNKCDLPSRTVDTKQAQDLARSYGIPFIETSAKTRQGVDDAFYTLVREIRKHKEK
# KRas G12R = KRas G12R (Homo sapiens, UniProt P01116, G12R); assay: biochemical; settings: Binding to KRas (IC50 nM) G12R, TR-FRET displacement, KRas G12R
# KRas G12R, sequence (P01116 1-169 isoform P01116-2 G12R): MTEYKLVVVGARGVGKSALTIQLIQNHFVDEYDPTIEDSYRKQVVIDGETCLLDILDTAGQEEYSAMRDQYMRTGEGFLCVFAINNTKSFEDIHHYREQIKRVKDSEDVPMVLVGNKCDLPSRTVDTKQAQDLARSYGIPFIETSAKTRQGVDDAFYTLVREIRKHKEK
# MKN1 cells = assay: Inhibition of KRas-mediated phosphorylation of ERK (Cisbio HTRF pERK), MKN1 cells; format: cell-based; settings: Homo sapiens, MKN-1, 3 hour compound incubation, Cisbio pERK HTRF
# Method in brief: (§1)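 Growth medium is RPMI with 10% FBS, and each well receives 6,000 cells on the first day of the protocol.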
# H358 cells = assay: Inhibition of KRas-mediated phosphorylation of ERK (Cisbio HTRF pERK), H358 cells; format: cell-based; settings: Homo sapiens; for inhibition at 0.1 µM: NCI-H358, single point at 100 nM, 3 hrs compound incubation; for IC50: NCI-H358, 3 h, 3 hr compound incubation, Cisbio pERK HTRF
# PSN1 cells = assay: Inhibition of KRas-mediated phosphorylation of ERK (Cisbio HTRF pERK), PSN1 cells; format: cell-based; settings: Homo sapiens, PSN1, 3 h, 3 hour compound incubation, Cisbio pERK HTRF
# Method in brief: as §1
# HCT116 cells = assay: Inhibition of KRas-mediated phosphorylation of ERK (Cisbio HTRF pERK), HCT116 cells; format: cell-based; settings: Homo sapiens; for inhibition at 0.1 µM: HCT-116, single point at 100 nM, 3 hrs compound incubation; for IC50: HCT-116, 3 h, 3 hr compound incubation, Cisbio pERK HTRF
IC50 (KRas G12D) [nM],IC50 (ASPC1 cells) [nM],IC50 (H727 cells) [nM],IC50 (KRas G12V) [nM],IC50 (KRas G12R) [nM],IC50 (MKN1 cells) [nM],IC50 (PSN1 cells) [nM],IC50 (A549 cells) [nM],IC50 (H460 cells) [nM],IC50 (H358 cells) [nM],IC50 (HCT116 cells) [nM],SMILES,inhibition at 0.1 µM (A549 cells) [%],inhibition at 0.1 µM (H460 cells) [%],inhibition at 0.1 µM (H358 cells) [%],inhibition at 0.1 µM (HCT116 cells) [%],inhibition at 0.1 µM (ASPC1 cells) [%],inhibition at 0.1 µM (H727 cells) [%]
< 2,105,178,3,< 2,10.9,> 10000,–,–,–,–,"CCc1c(F)ccc2cc(O)cc(N3CCc4c(nc(OC[C@@]56CCCN5C[C@H](F)C6)nc4N4CCCn5nc(P(C)(C)=O)cc5C4)C3)c12 [Example 350, (5-(7-(8-ethyl-7-fluoro-3-hydroxynaphthalen-1-yl)-2-(((2R,7aS)-2-fluorotetrahydro-1H-pyrrolizin-7a(5H)-yl)methoxy)-5,6,7,8-tetrahydropyrido[3,4-d]pyrimidin-4-yl)-5,6,7,8-tetrahydro-4H-pyrazolo[1,5-a][1,4]diazepin-2-yl)dimethylphosphine oxide]",23,44,76,10,–,–
< 2,1820,1950,2,2,1110,> 10000,–,–,–,–,"CCc1c(F)ccc2cc(O)cc(N3CCc4c(nc(OC[C@@]56CCCN5C[C@H](F)C6)nc4N4CCCn5nc(CNC(=O)NC)cc5C4)C3)c12 [Example 352, 1-((5-(7-(8-ethyl-7-fluoro-3-hydroxynaphthalen-1-yl)-2-(((2R,7aS)-2-fluorohexahydro-1H-pyrrolizin-7a-yl)methoxy)-5,6,7,8-tetrahydropyrido[3,4-d]pyrimidin-4-yl)-5,6,7,8-tetrahydro-4H-pyrazolo[1,5-a][1,4]diazepin-2-yl)methyl)-3-methylurea]",-15,-4,-7,-2,–,–
< 2,400,561,3,4,516,> 10000,–,–,–,–,"CCc1c(F)ccc2cc(O)cc(N3CCc4c(nc(OC[C@@]56CCCN5C[C@H](F)C6)nc4N4CCCn5nc(CNC(C)=O)cc5C4)C3)c12 [Example 353, N-((5-(7-(8-ethyl-7-fluoro-3-hydroxynaphthalen-1-yl)-2-(((2R,7aS)-2-fluorohexahydro-1H-pyrrolizin-7a-yl)methoxy)-5,6,7,8-tetrahydropyrido[3,4-d]pyrimidin-4-yl)-5,6,7,8-tetrahydro-4H-pyrazolo[1,5-a][1,4]diazepin-2-yl)methyl)acetamide]",26,-15,-10,6,–,–
< 2,25,203,< 2,< 2,37.2,> 10000,–,–,–,–,"CCc1c(F)ccc2cc(O)cc(N3CCc4c(nc(OC[C@@]56CCCN5C[C@H](F)C6)nc4N4CCCn5nc(C(=O)N6CC7CC(C6)N(C)C7)cc5C4)C3)c12 (stereo partly drawn) [Example 500, (5-(7-(8-ethyl-7-fluoro-3-hydroxynaphthalen-1-yl)-2-(((2R,7aS)-2-fluorohexahydro-1H-pyrrolizin-7a-yl)methoxy)-5,6,7,8-tetrahydropyrido[3,4-d]pyrimidin-4-yl)-5,6,7,8-tetrahydro-4H-pyrazolo[1,5-a][1,4]diazepin-2-yl)(6-methyl-3,6-diazabicyclo[3.2.1]octan-3-yl)methanone]",46,22,74,11,91,20
< 2,23,132,< 2,2,41.2,> 10000,–,–,–,–,"CCc1c(F)ccc2cc(O)cc(N3CCc4c(nc(OC[C@@]56CCCN5C[C@H](F)C6)nc4N4CCCn5nc(C(=O)N6CCC7CC6CN7C)cc5C4)C3)c12 (stereo partly drawn) [Example 501, (5-(7-(8-ethyl-7-fluoro-3-hydroxynaphthalen-1-yl)-2-(((2R,7aS)-2-fluorohexahydro-1H-pyrrolizin-7a-yl)methoxy)-5,6,7,8-tetrahydropyrido[3,4-d]pyrimidin-4-yl)-5,6,7,8-tetrahydro-4H-pyrazolo[1,5-a][1,4]diazepin-2-yl)(6-methyl-2,6-diazabicyclo[3.2.1]octan-2-yl)methanone]",27,17,95,23,86,40
< 2,10,5,< 2,< 2,9.9,1090,17,81,4,298,"CCc1c(F)ccc2cc(O)cc(N3CCc4c(nc(OC[C@@]56CCCN5C[C@H](F)C6)nc4N4CCCCn5nc(C(=O)NC(C)C)c(Cl)c5C4)C3)c12 [Example 506, 3-chloro-5-(7-(8-ethyl-7-fluoro-3-hydroxynaphthalen-1-yl)-2-(((2R,7aS)-2-fluorotetrahydro-1H-pyrrolizin-7a(5H)-yl)methoxy)-5,6,7,8-tetrahydropyrido[3,4-d]pyrimidin-4-yl)-N-isopropyl-4,5,6,7,8,9-hexahydropyrazolo[1,5-a][1,4] diazocine-2-carboxamide]",–,71,–,34,97,80
< 2,10,4,< 2,< 2,5.5,1320,6,13,1,39,"CCc1c(F)ccc2cc(O)cc(N3CCc4c(nc(OC[C@@]56CCCN5C[C@H](F)C6)nc4N4CCCCn5nc(C(=O)N(C)C)c(Br)c5C4)C3)c12 [Example 507, 3-bromo-5-(7-(8-ethyl-7-fluoro-3-hydroxynaphthalen-1-yl)-2-(((2R,7aS)-2-fluorotetrahydro-1H-pyrrolizin-7a(5H)-yl)methoxy)-5,6,7,8-tetrahydropyrido[3,4-d]pyrimidin-4-yl)-N,N-dimethyl-4,5,6,7,8,9-hexahydropyrazolo[1,5-a][1,4] diazocine-2-carboxamide]",76,84,101,51,96,79
< 2,30,85,< 2,2,12.6,276,–,–,–,–,"Cc1c(F)ccc2cc(O)cc(N3CCc4c(nc(OC[C@@]56CCCN5C[C@H](F)C6)nc4N4CCCC5(CNS(=O)(=O)N5)C4)C3)c12 (stereo partly drawn) [Example 512, 7-(7-(7-fluoro-3-hydroxy-8-methylnaphthalen-1-yl)-2-(((2R,7aS)-2-fluorohexahydro-1H-pyrrolizin-7a-yl)methoxy)-5,6,7,8-tetrahydropyrido[3,4-d]pyrimidin-4-yl)-2-thia-1,3,7-triazaspiro[4.5]decane 2,2-dioxide]",71,79,92,56,74,42

SMILES,IC50 (KRas G12D) [nM],IC50 (ASPC1 cells) [nM],IC50 (H727 cells) [nM],IC50 (KRas G12V) [nM],IC50 (KRas G12R) [nM],IC50 (MKN1 cells) [nM],IC50 (PSN1 cells) [nM],IC50 (A549 cells) [nM],IC50 (H460 cells) [nM],IC50 (H358 cells) [nM],IC50 (HCT116 cells) [nM],inhibition at 0.1 µM (A549 cells) [%],inhibition at 0.1 µM (H460 cells) [%],inhibition at 0.1 µM (H358 cells) [%],inhibition at 0.1 µM (HCT116 cells) [%],inhibition at 0.1 µM (ASPC1 cells) [%],inhibition at 0.1 µM (H727 cells) [%]
"CCc1c(F)ccc2cc(O)cc(N3CCc4c(nc(OC[C@@]56CCCN5C[C@H](F)C6)nc4N4CCCn5nc(C(=O)N6[C@@H]7CNC[C@H]6C7)cc5C4)C3)c12 [Example 499, (1R,5S)-3,6-diazabicyclo[3.1.1]heptan-6-yl(5-(7-(8-ethyl-7-fluoro-3-hydroxynaphthalen-1-yl)-2-(((2R,7aS)-2-fluorohexahydro-1H-pyrrolizin-7a-yl)methoxy)-5,6,7,8-tetrahydropyrido[3,4-d]pyrimidin-4-yl)-5,6,7,8-tetrahydro-4H-pyrazolo[1,5-a][1,4]diazepin-2-yl)methanone]",< 2,41,168,< 2,< 2,186,> 10000,–,–,–,–,25,6,57,11,47,37
